Laboratory results as given in the supplement of paper PMC11451515.

Tested on: SEM cells
Assay: cell viability relative to DMSO control; higher = less cytotoxic
Conditions: 48 h
Method in brief: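 Viability is expressed as a percentage of DMSO wells within each plate, and cell-free wells serve as background. Seeding densities in the 1536-well plates (5 μl) were 500 cells/well for NOMO1 or SEM leukemia cells and 1000 cells/well for P12-Ichikawa. Each line was adapted for at least four passages in each medium. Library compounds in DMSO were pin-dosed at 47 μM to 0.79 nM (11 points, threefold), and CellTiter-Glo One luminescence was read after 48 h at 37°C.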

[1] = HPLM + 10% dialyzed FBS, 0.000781 µM
[2] = HPLM + 10% dialyzed FBS, 0.00234 µM
[3] = HPLM + 10% dialyzed FBS, 0.00702 µM
[4] = HPLM + 10% dialyzed FBS, 0.0211 µM
[5] = HPLM + 10% dialyzed FBS, 0.0632 µM
[6] = HPLM + 10% dialyzed FBS, 0.19 µM
[7] = HPLM + 10% dialyzed FBS, 0.569 µM
[8] = HPLM + 10% dialyzed FBS, 1.71 µM
[9] = HPLM + 10% dialyzed FBS, 5.12 µM
[10] = HPLM + 10% dialyzed FBS, 15.4 µM
[11] = HPLM + 10% dialyzed FBS, 46.1 µM
[12] = RPMI 5 mM glucose + 10% FBS, 0.000781 µM
[13] = RPMI 5 mM glucose + 10% FBS, 0.00234 µM
[14] = RPMI 5 mM glucose + 10% FBS, 0.00702 µM
[15] = RPMI 5 mM glucose + 10% FBS, 0.0211 µM
[16] = RPMI 5 mM glucose + 10% FBS, 0.0632 µM
[17] = RPMI 5 mM glucose + 10% FBS, 0.19 µM
[18] = RPMI 5 mM glucose + 10% FBS, 0.569 µM
[19] = RPMI 5 mM glucose + 10% FBS, 1.71 µM
[20] = RPMI 5 mM glucose + 10% FBS, 5.12 µM
[21] = RPMI 5 mM glucose + 10% FBS, 15.4 µM
[22] = RPMI 5 mM glucose + 10% FBS, 46.1 µM
[23] = RPMI 5 mM glucose + 10% dialyzed FBS, 0.000781 µM
[24] = RPMI 5 mM glucose + 10% dialyzed FBS, 0.00234 µM
[25] = RPMI 5 mM glucose + 10% dialyzed FBS, 0.00702 µM
[26] = RPMI 5 mM glucose + 10% dialyzed FBS, 0.0211 µM
[27] = RPMI 5 mM glucose + 10% dialyzed FBS, 0.0632 µM
[28] = RPMI 5 mM glucose + 10% dialyzed FBS, 0.19 µM
[29] = RPMI 5 mM glucose + 10% dialyzed FBS, 0.569 µM
[30] = RPMI 5 mM glucose + 10% dialyzed FBS, 1.71 µM
[31] = RPMI 5 mM glucose + 10% dialyzed FBS, 5.12 µM
[32] = RPMI 5 mM glucose + 10% dialyzed FBS, 15.4 µM
[33] = RPMI 5 mM glucose + 10% dialyzed FBS, 46.1 µM

SMILES | cell viability [1] [%] | cell viability [2] [%] | cell viability [3] [%] | cell viability [4] [%] | cell viability [5] [%] | cell viability [6] [%] | cell viability [7] [%] | cell viability [8] [%] | cell viability [9] [%] | cell viability [10] [%] | cell viability [11] [%] | cell viability [12] [%] | cell viability [13] [%] | cell viability [14] [%] | cell viability [15] [%] | cell viability [16] [%] | cell viability [17] [%] | cell viability [18] [%] | cell viability [19] [%] | cell viability [20] [%] | cell viability [21] [%] | cell viability [22] [%] | cell viability [23] [%] | cell viability [24] [%] | cell viability [25] [%] | cell viability [26] [%] | cell viability [27] [%] | cell viability [28] [%] | cell viability [29] [%] | cell viability [30] [%] | cell viability [31] [%] | cell viability [32] [%] | cell viability [33] [%]
ClC1=CC=C(CCCOC/2=N/NC(=O)C(=C2NCC3=CN=CC=C3)/Br)C=C1 | 105 | 115 | 112 | 115 | 116 | 115 | 70.8 | 30.2 | 32.7 | 16 | 7.78 | 121 | 119 | 130 | 113 | 104 | 114 | 103 | 65.1 | 72.2 | 26.9 | 8.69 | 116 | 133 | 123 | 112 | 125 | 126 | 101 | 93.8 | 84.1 | 49.7 | 10
CC(C)OC(=O)CCC/C=C\C[C@@H]1[C@@H](/C=C/[C@@H](O)COc2cccc(C(F)(F)F)c2)[C@H](O)C[C@@H]1O | 65.4 | 124 | 115 | 118 | 118 | 118 | 121 | 122 | 106 | 102 | 31.7 |  |  |  |  |  |  |  |  |  |  |  |  |  |  |  |  |  |  |  |  |  | 
COc1cc2nccc(Oc3ccc(NC(=O)C4(C(=O)Nc5ccc(F)cc5)CC4)cc3)c2cc1OC | 87.6 | 90.6 | 71.2 | 52.1 | 53.5 | 48.7 | 52.9 | 48.3 | 47.1 | 30.4 | 16.7 | 92.2 | 89.2 | 79.6 | 62.2 | 58.9 | 55.4 | 56 | 51.7 | 46.7 | 31.2 | 5.48 | 71.3 | 71.6 | 57.2 | 42.3 | 47.9 | 43.7 | 41.1 | 46.4 | 40.1 | 26.9 | 12.6
CCOC(=O)C/1=C(C)/NC(=S)NC1C2=CC=CC(=C2)O (stereo not drawn) | 110 | 99.3 | 103 | 111 | 68.2 | 24.3 | 22.9 | 22.4 | 7.01 | 16 | 15.2 | 89.4 | 104 | 118 | 109 | 109 | 20.5 | 15.2 | 12 | 6.19 | 7.56 | 3.89 | 100 | 100 | 108 | 106 | 101 | 47.2 | 21.2 | 20.8 | 5.56 | 14.3 | 8.93
Fc1cc(-c2cccc3ncc(-c4cnn(C5CCNCC5)c4)nc23)cc(F)c1CN1CCOCC1 |  |  |  |  |  |  |  |  |  |  |  | 110 | 113 | 107 | 110 | 112 | 105 | 103 | 95.8 | 27.4 | 25.7 | 16 |  |  |  |  |  |  |  |  |  |  | 
Cc1cc(Nc2ncc(Cl)c(Nc3ccccc3[S+](=O)([O-])C(C)C)n2)c(OC(C)C)cc1C1CCNCC1 | 115 | 114 | 119 | 123 | 120 | 109 | 96 | 88.1 | 69 | 48.3 | 5.59 | 112 | 114 | 103 | 118 | 119 | 101 | 94.2 | 101 | 65.3 | 50.5 | 5.71 | 125 | 121 | 104 | 146 | 142 | 121 | 110 | 100 | 80.9 | 52.2 | 6.92
COc1cc2ncnc(-n3nc(-c4ccccn4)nc3N)c2cc1OC | 75.1 | 95.7 | 96.7 | 94.2 | 94.9 | 103 | 79.3 | 83.7 | 35 | 45 | 1.68 | 105 | 103 | 114 | 100 | 85.8 | 106 | 91.2 | 39.1 | 3.56 | 1.61 | 1.33 | 83.2 | 93.8 | 95.1 | 85.7 | 81.9 | 99.8 | 83.6 | 65.7 | 9.89 | 11.4 | 1.21
CC(C)(C)OC(=O)CN(Cc1ccc(Cl)cc1)Cc1ccc([N+](=O)[O-])s1 | 110 | 111 | 101 | 110 | 110 | 115 | 109 | 114 | 92.8 | 91.5 | 43.7 | 98.2 | 103 | 87.5 | 94.4 | 103 | 108 | 90.2 | 110 | 99.9 | 95.2 | 26.1 | 90.7 | 97.2 | 94.3 | 99.8 | 92.8 | 99.1 | 97.3 | 94 | 91.2 | 95.1 | 21.1
COc1ccc(CCN2CCN(CCCc3ccccc3)CC2)cc1OC | 100 | 115 | 117 | 133 | 133 | 138 | 134 | 126 | 125 | 127 | 127 | 108 | 125 | 112 | 124 | 133 | 132 | 127 | 129 | 133 | 125 | 109 | 115 | 113 | 132 | 134 | 141 | 162 | 150 | 148 | 141 | 139 | 122
